Data published in US10869879B2, “Combinations to treat cancer” (EVOL SCIENCE LLC, priority 2017, dated 2020).
pIC50: −log10 of the molar value.

What was measured:
[1] = test system: SK-MEL-28 cells; experiment: Colony formation assay; format: cell-based; conditions: Homo sapiens, parental cell line, FIG. 4B, read-out: IC50 of vemurafenib, colony formation
Experimental: (§1) For colony formation assays, 400 cells per well were seeded into 24-well plates on day 0. Cells were treated with DMSO or gemcitabine at various doses on day 1 for 24 hours. Gemcitabine was washed out on day 2, vemurafenib, dabrafenib, and methotrexate was added. On day 4, drugs added on day 2 was washed out. Cells were allowed to grow for a subsequent 7 days before being fixed (10% methanol+10% acetic acid) and stained with crystal violet (0.4% in 20% ethanol) for quantitation as previously described.
All proteomic trend plots were constructed using the Evol Science suite (ES). Volcano plotting serves to visually separate data points in two axes by both their expression ratio and their statistical significance. This enables a simple method of determining the most significant, differentially expressed proteins within a given comparison. For each protein, replicate values are gathered from each experiment to be compared to create two distributions of values. Student's T-Test of identical mean is used between the two independent samples of values to compare the distributions and generate a p-value of statistical significance. The −log 10 of the p-value is then taken to provide the Y coordinate, in graphical view. The X coordinate, Ratio, is given by the log 10 of the average of replicate ratio values for a given experiment. […]

[2] = test system: pancreatic cancer cells (BxPC3M1, BxPC3, Panc1, MiaPaca2); format: cell-based; conditions: vemurafenib 10 μM versus DMSO, all 4 cell lines, n=3
[3] = test system: SK-MEL-28VR1 cells; experiment: Colony formation assay; format: cell-based, human; conditions: for cell death with serine depletion: glucose, and glycine depleted media, not with complete media
Experimental: as §1
(§2) All proteomic trend plots were constructed using the Evol Science suite (ES). Volcano plotting serves to visually separate data points in two axes by both their expression ratio and their statistical significance. This enables a simple method of determining the most significant, differentially expressed proteins within a given comparison. For each protein, replicate values are gathered from each experiment to be compared to create two distributions of values. Student's T-Test of identical mean is used between the two independent samples of values to compare the distributions and generate a p-value of statistical significance. The −log 10 of the p-value is then taken to provide the Y coordinate, in graphical view. The X coordinate, Ratio, is given by the log 10 of the average of replicate ratio values for a given experiment. Combination Index calculations, Fa-CI plots, and isobolograms were constructed using the Compusyn software program using the Chou-Tulalay method. All plots representing colony formation assays were constructed using the Prism7 software (Graphpad.com). Two-way Anova tests were used to calculate p values.

[4] = test system: BxPC3M1 cells; experiment: Colony formation assay; format: cell-based, human; conditions: vemurafenib 5 μM, glucose, and glycine depleted media, not with complete media
Experimental: as §1, §2

[5] = test system: SK-MEL-28VR1 cells; experiment: Mass spectrometry, FAM129B protein abundance; format: cell-based, human; conditions: FIG. 5A, n=3
Experimental: (§3) FIG. 5A and FIG. 5B illustrate a characterization of SK-MEL-28VR1 cells. FIG. 5A: Unbiased Mass spectrometry: FAM129B protein abundance following differential treatments of SK-MEL-28 and SK-MEL-28VR1 cells (n=3). FIG. 5B: illustrates a characterization of SK-MEL-28VR1 cells. Western blot of PHGDH protein expression in differentially treated SK-MEL-28 and SK-MEL-28VR1 cells. Alpha tubulin used as loading control. 50 μg of protein loaded in each lane.
(§4) Samples were dried down and re-dissolved in 2.5% ACN/0.1% formic acid for liquid chromatography-tandem mass spectrometry (LC-MS/MS) analysis carried out on a Q-Exactive HF (Thermo Fisher Scientific) coupled with a U3000 RSLCnano HPLC device (Thermo Fisher Scientific). 5 μL of sample were loaded onto a C18 trap column (PepMap100; 300-μm i.d.×5 mm, 5-μm particle size, 100 Å; Thermo Fisher Scientific) at a flow rate of 10 μL min^−1. […] The runs were analyzed using Progenesis-QI for Proteomics (Nonlinear dynamics). […] The peptide and protein quantification used a synthetic control peptide for normalization across the samples. […]

[6] = test system: SK-MEL-28VR1 vs SK-MEL-28 cells; conditions: vemurafenib treatment, SK-MEL-28VR1 compared to parental SK-MEL-28
[7] = test system: SK-MEL-28 cells; experiment: Mass spectrometry, FAM129B protein abundance; format: cell-based; conditions: parental SK-MEL-28 cells
Experimental: as §3, §4

[8] = test system: BxPC3M1, BxPC3, Panc1, and MiaPaca2; experiment: Cell proliferation assay; format: cell-based; conditions: vemurafenib 10 μM, all 4 cell lines (WT BRAF)
Experimental: FIG. 9A, FIG. 9B, FIG. 9C, FIG. 9D, FIG. 9E, FIG. 9F, FIG. 9G and FIG. 9H illustrate vemurafenib induced cell proliferation and serine synthesis in pancreatic cancer cell lines. FIG. 9A: Cell proliferation assay of BxPC3 cells treated with vemurafenib (10 μM). 100000 cells plated on day 0. FIG. 9B: Cell proliferation assay of BxPC3M1 cells treated with vemurafenib (10 μM). 100000 cells plated on day 0. FIG. 9C: Cell proliferation assay of Panc1 cells treated with vemurafenib (10 μM). 100000 cells plated on day 0. FIG. 9D: Cell proliferation assay of MiaPaca2 cells treated with vemurafenib (10 μM). 100000 cells plated on day 0. FIG. 9E: Mass spectrometry: PHGDH protein expression in pancreatic cancer cells treated with DMSO or vemurafenib (10 μM) (n=3). FIG. 9F: Mass spectrometry: PSAT1 protein expression in pancreatic cancer cells treated with DMSO or vemurafenib (10 μM) (n=3). FIG. 9G: Mass spectrometry: PSPH protein expression in pancreatic cancer cells treated with DMSO or vemurafenib (10 μM) (n=3). FIG. 9H: Mass spectrometry: SARS protein expression in pancreatic cancer cells treated with DMSO or vemurafenib (10 μM) (n=3).
Next, we tested the effect of vemurafenib treatment on pancreatic cancer cell proliferation. All 4 of the cell lines (BxPC3M1, BxPC3, Panc1, and MiaPaca2) tested express WT BRAF. […]

SMILES: CCCS(=O)(=O)Nc1ccc(F)c(C(=O)c2c[nH]c3ncc(-c4ccc(Cl)cc4)cc23)c1F [vemurafenib, Vemurafenib]
- pIC50 [1]: ~6.00
- PHGDH, PSAT1, PSPH, and SARS protein abundance [2]: increased
- pIC50 ([3]; Homo sapiens, data not shown, read-out: IC50 of vemurafenib, colony formation): ~4.52
- cell death with serine depletion ([3]; vemurafenib 2.5 μM): > 50%
- cell death with serine depletion ([3]; vemurafenib 5 μM): > 50%
- cell death with serine depleted media [4]: > 50%
- Cytoplasmic FAM129B abundance increase, vemurafenib compared to vehicle treatment [5]: ~6 fold
- Fold differential, ASNS ([6]; protein ASNS): 8 fold
- Fold differential, CYP51A1 ([6]; protein CYP51A1): 8 fold
- Fold differential, DUS2 ([6]; protein DUS2): 7 fold
- Fold differential, FAM129B ([6]; protein FAM129B): 9 fold
- Fold differential, KRT19 ([6]; protein KRT19): 5 fold
- Fold differential, LARS2 ([6]; protein LARS2): 6 fold
- Fold differential, MPHOSPH6 ([6]; protein MPHOSPH6): 9 fold
- Fold differential, MRPL13 ([6]; protein MRPL13): 2 fold
- Fold differential, PDLIM7 ([6]; protein PDLIM7): 9 fold
- Fold differential, PHGDH ([6]; protein PHGDH): 2 fold
- Fold differential, PPP1R7 ([6]; protein PPP1R7): 8 fold
- Fold differential, PSAT1 ([6]; protein PSAT1): 8 fold
- Fold differential, PSPH ([6]; protein PSPH): 5 fold
- Fold differential, RUVBL1 ([6]; protein RUVBL1): 3 fold
- Fold differential, S100A11 ([6]; protein S100A11): 8 fold
- Fold differential, SARS2 ([6]; protein SARS2): 4 fold
- Fold differential, SARS ([6]; protein SARS): 6 fold
- Fold differential, SBDS ([6]; protein SBDS): 10 fold
- Fold differential, SPATA20 ([6]; protein SPATA20): 12 fold
- Fold differential, TXNDC17 ([6]; protein TXNDC17): 2 fold
- FAM129B abundance in response to vemurafenib treatments [7]: decreased
- cell proliferation under vemurafenib treatment [8]: increased proliferation
